From patent US12077503B2, “Substituted cyclic amides and their use as herbicides” (FMC CORPORATION, priority 2015, dated 2024)

Experiments:
Assay type in all cases: in vivo
[1] = tested on: barnyardgrass (Echinochloa crus-galli); assay: Test A postemergence
How it was run: (§1)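 Each rating is a visual injury score from 0 to 100 given about 10 d after treatment, judged against untreated controls kept alongside in the greenhouse. In loam soil–sand blend, seeds got a preemergence directed soil spray, while postemergence plants were 2 to 10 cm tall at spraying.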

[2] = tested on: pigweed (Amaranthus retroflexus); assay: Test A postemergence; settings: postemergence, 0 to 100 scale (0 no effect, 100 complete control)
How it was run: as §1

[3] = tested on: ryegrass, Italian (Italian ryegrass, Lolium multiflorum); assay: Test A postemergence; settings: postemergence, 0 to 100 scale (0 no effect, 100 complete control)
How it was run: as §1

[4] = tested on: Galium (catchweed bedstraw, Galium aparine); assay: Test A postemergence; settings: postemergence, 0 to 100 scale (0 no effect, 100 complete control)
How it was run: as §1

[5] = tested on: giant foxtail (Setaria faberii); assay: Test A postemergence; settings: postemergence, 0 to 100 scale (0 no effect, 100 complete control)
How it was run: as §1

[6] = tested on: wheat (Triticum aestivum); assay: Test A postemergence; settings: postemergence, 0 to 100 scale (0 no effect, 100 complete control)
How it was run: as §1

[7] = tested on: Kochia (Kochia scoparia); assay: Test A postemergence; settings: postemergence, 0 to 100 scale (0 no effect, 100 complete control)
How it was run: as §1

[8] = tested on: corn (Zea mays); assay: Test A postemergence
How it was run: as §1

[9] = tested on: ragweed (common ragweed, Ambrosia elatior); assay: Test A postemergence; settings: postemergence, 0 to 100 scale (0 no effect, 100 complete control)
How it was run: as §1

[10] = tested on: blackgrass (Alopecurus myosuroides); assay: Test A postemergence
How it was run: as §1

[11] = tested on: ducksalad (Heteranthera limosa); assay: Test B flooded paddy test; settings: Flood, 250 g ai/ha; 0 to 100 scale where 0 is no effect and 100 is complete control; 13 to 15 d
How it was run: (§2)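 Rating scale 0–100 (visual, vs untreated controls) after a 13–15 d greenhouse period; application to the flood layer, 3 cm above soil and maintained; plants at 2-leaf stage when treated.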

[12] = tested on: barnyardgrass (Echinochloa crus-galli); assay: Test B flooded paddy test; settings: Flood, 250 g ai/ha; 0 to 100 scale where 0 is no effect and 100 is complete control; 13 to 15 d
How it was run: as §2

[13] = tested on: rice (Oryra sativa); assay: Test B flooded paddy test; settings: Flood, 250 g ai/ha; 0 to 100 scale where 0 is no effect and 100 is complete control; 13 to 15 d
How it was run: as §2

[14] = tested on: sedge, umbrella (small-flower umbrella sedge, Cyperus difformis); assay: Test B flooded paddy test; settings: Flood, 250 g ai/ha; 0 to 100 scale where 0 is no effect and 100 is complete control; 13 to 15 d
How it was run: as §2

[15] = tested on: barnyardgrass (Echinochloa crus-galli); assay: Test A preemergence
How it was run: as §1

[16] = tested on: pigweed (Amaranthus retroflexus); assay: Test A preemergence
[17] = tested on: ryegrass, Italian (Italian ryegrass, Lolium multiflorum); assay: Test A preemergence
How it was run: as §1

[18] = tested on: giant foxtail (Setaria faberii); assay: Test A preemergence
How it was run: as §1

[19] = tested on: Kochia (Kochia scoparia); assay: Test A preemergence
How it was run: as §1

[20] = tested on: ragweed (common ragweed, Ambrosia elatior); assay: Test A preemergence
How it was run: as §1

[21] = tested on: johnsongrass (Sorghum halepense); assay: Test C preemergence; settings: for Plant response rating (scale of 0 to 100), Johnsongrass: 31 g ai/ha, 0 is no effect, 100 is complete control; for Plant response rating, Johnsongrass: scale 0 to 100, 0 no effect, 100 complete control
How it was run: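 After treatment with surfactant-containing formulations, either preemergence to seeds in loam-sand soil or postemergence to potted seedlings at 2–18 cm, plants were kept 13–15 d in a greenhouse. Observers then compared them with controls and assigned ratings, 0 signifying no effect and 100 complete control.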

[22] = 125 g ai/ha, postemergence, visual rating after approx. 10 d, 0 to 100 scale (0 no effect, 100 complete control)
[23] = Postemergence, 500 g ai/ha, 0 to 100 scale where 0 is no effect and 100 is complete control
[24] = 125 g ai/ha, visual rating after approx. 10 d
[25] = 500 g ai/ha, visual injury, approx. 10 d
[26] = 125 g ai/ha, Preemergence, visual injury after approximately 10 d, 0 to 100 scale where 0 is no effect and 100 is complete control
[27] = 500 g ai/ha, preemergence, 0 to 100 scale, 0 = no effect, 100 = complete control
[28] = 500 g ai/ha, postemergence, visual injury, 0 to 100 scale (0 no effect, 100 complete control), approx. 10 d

CN1CC(c2cccc(C(F)(F)F)c2)C(C(=O)Nc2ccccc2S(C)(=O)=O)C1=O (stereo not drawn) [Compound 637]
Plant response rating, Barnyardgrass [1, 22]: 90 | Plant response rating, Barnyardgrass [1, 23]: 90 | Plant response rating, Pigweed [2, 24]: 50 | Plant response rating, Pigweed [2, 25]: 60 | Plant response rating, Ryegrass, Italian [3, 24]: 20 | Plant response rating, Ryegrass, Italian [3, 25]: 20 | Plant response rating, Galium [4, 24]: 50 | Plant response rating, Galium [4, 25]: 50 | Plant response rating, Foxtail, Giant [5, 24]: 90 | Plant response rating, Foxtail, Giant [5, 25]: 90 | Plant response rating, Wheat [6, 24]: 70 | Plant response rating, Wheat [6, 25]: 70 | Plant response rating, Kochia [7, 24]: 0 | Plant response rating, Kochia [7, 25]: 30 | Plant response rating, Corn [8, 22]: 70 | Plant response rating, Corn [8, 23]: 70 | Plant response rating, Ragweed [9, 24]: 0 | Plant response rating, Ragweed [9, 25]: 20 | Plant response rating, Blackgrass [10, 22]: 50 | Plant response rating, Blackgrass [10, 23]: 60 | Plant response rating, Ducksalad [11]: 100 | Plant response rating, Barnyardgrass [12]: 80 | Plant response rating, Rice [13]: 10 | Plant response rating, Sedge, Umbrella [14]: 0 | Plant response rating, Barnyardgrass [15, 26]: 90 | Plant response rating, Barnyardgrass [15, 27]: 90 | Plant response rating, Pigweed [16, 26]: 80 | Plant response rating, Pigweed [16, 27]: 100 | Plant response rating, Ryegrass, Italian [17, 26]: 50 | Plant response rating, Ryegrass, Italian [17, 27]: 90 | Plant response rating, Foxtail, Giant [18, 26]: 90 | Plant response rating, Foxtail, Giant [18, 27]: 100 | Plant response rating, Kochia [19, 26]: 40 | Plant response rating, Kochia [19, 27]: 60 | Plant response rating, Ragweed [20, 26]: 40 | Plant response rating, Ragweed [20, 27]: 70 | Plant response rating (scale of 0 to 100), Johnsongrass [21]: 45 | Plant response rating, Johnsongrass ([21]; 62 g ai/ha): 70 | Plant response rating, Johnsongrass ([21]; 125 g ai/ha): 75 | Plant response rating, Johnsongrass ([21]; 250 g ai/ha): 85

Cc1ccc(C2CN(C)C(=O)C2C(=O)Nc2cccc(F)c2F)cc1 (stereo not drawn) [Compound 662]
Plant response rating, Barnyardgrass [1, 22]: 90 | Plant response rating, Barnyardgrass [1, 28]: 90 | Plant response rating, Pigweed [2, 24]: 20 | Plant response rating, Pigweed [2, 25]: 50 | Plant response rating, Ryegrass, Italian [3, 24]: 40 | Plant response rating, Ryegrass, Italian [3, 25]: 70 | Plant response rating, Galium [4, 24]: 60 | Plant response rating, Galium [4, 25]: 70 | Plant response rating, Foxtail, Giant [5, 24]: 90 | Plant response rating, Foxtail, Giant [5, 25]: 90 | Plant response rating, Wheat [6, 24]: 80 | Plant response rating, Wheat [6, 25]: 80 | Plant response rating, Kochia [7, 24]: 70 | Plant response rating, Kochia [7, 25]: 70 | Plant response rating, Corn [8, 22]: 80 | Plant response rating, Corn [8, 28]: 90 | Plant response rating, Ragweed [9, 24]: 20 | Plant response rating, Ragweed [9, 25]: 60 | Plant response rating, Blackgrass [10, 22]: 60 | Plant response rating, Blackgrass [10, 28]: 80 | Plant response rating, Ducksalad [11]: 95 | Plant response rating, Barnyardgrass [12]: 80 | Plant response rating, Rice [13]: 20 | Plant response rating, Sedge, Umbrella [14]: 0 | Plant response rating, Barnyardgrass [15, 26]: 90 | Plant response rating, Barnyardgrass [15, 27]: 90 | Plant response rating, Pigweed [16, 26]: 70 | Plant response rating, Pigweed [16, 27]: 80 | Plant response rating, Ryegrass, Italian [17, 26]: 40 | Plant response rating, Ryegrass, Italian [17, 27]: 90 | Plant response rating, Foxtail, Giant [18, 26]: 100 | Plant response rating, Foxtail, Giant [18, 27]: 100 | Plant response rating, Kochia [19, 26]: 70 | Plant response rating, Kochia [19, 27]: 90 | Plant response rating, Ragweed [20, 26]: 80 | Plant response rating, Ragweed [20, 27]: 80 | Plant response rating (scale of 0 to 100), Johnsongrass [21]: 60 | Plant response rating, Johnsongrass ([21]; 62 g ai/ha): 70 | Plant response rating, Johnsongrass ([21]; 125 g ai/ha): 90 | Plant response rating, Johnsongrass ([21]; 250 g ai/ha): 90

Cc1cccc(C2CN(C)C(=O)C2C(=O)Nc2cccc(F)c2F)c1 (stereo not drawn) [Compound 667]
Plant response rating, Barnyardgrass [1, 22]: 90 | Plant response rating, Barnyardgrass [1, 28]: 90 | Plant response rating, Pigweed [2, 24]: 0 | Plant response rating, Pigweed [2, 25]: 0 | Plant response rating, Ryegrass, Italian [3, 24]: 60 | Plant response rating, Ryegrass, Italian [3, 25]: 80 | Plant response rating, Galium [4, 24]: 50 | Plant response rating, Galium [4, 25]: 50 | Plant response rating, Foxtail, Giant [5, 24]: 90 | Plant response rating, Foxtail, Giant [5, 25]: 90 | Plant response rating, Wheat [6, 24]: 40 | Plant response rating, Wheat [6, 25]: 70 | Plant response rating, Kochia [7, 24]: 50 | Plant response rating, Kochia [7, 25]: 60 | Plant response rating, Corn [8, 22]: 70 | Plant response rating, Corn [8, 28]: 80 | Plant response rating, Ragweed [9, 24]: 0 | Plant response rating, Ragweed [9, 25]: 50 | Plant response rating, Blackgrass [10, 22]: 60 | Plant response rating, Blackgrass [10, 28]: 70 | Plant response rating, Ducksalad [11]: 90 | Plant response rating, Barnyardgrass [12]: 75 | Plant response rating, Rice [13]: 10 | Plant response rating, Sedge, Umbrella [14]: 0 | Plant response rating, Barnyardgrass [15, 26]: 90 | Plant response rating, Barnyardgrass [15, 27]: 90 | Plant response rating, Pigweed [16, 26]: 20 | Plant response rating, Pigweed [16, 27]: 50 | Plant response rating, Ryegrass, Italian [17, 26]: 80 | Plant response rating, Ryegrass, Italian [17, 27]: 90 | Plant response rating, Foxtail, Giant [18, 26]: 90 | Plant response rating, Foxtail, Giant [18, 27]: 100 | Plant response rating, Kochia [19, 26]: 40 | Plant response rating, Kochia [19, 27]: 70 | Plant response rating, Ragweed [20, 26]: 60 | Plant response rating, Ragweed [20, 27]: 70 | Plant response rating (scale of 0 to 100), Johnsongrass [21]: 70 | Plant response rating, Johnsongrass ([21]; 62 g ai/ha): 80 | Plant response rating, Johnsongrass ([21]; 125 g ai/ha): 85 | Plant response rating, Johnsongrass ([21]; 250 g ai/ha): 90
